# Tests used:
# Type in all cases: in vivo
# [1] = system: Nilaparvata lugens; experiment: Insecticidal test, Nilaparvata lugens (brown planthopper), contact; conditions: 72 h, Cabbage leaf, 3 days, read-out: grading of mortality, NL
# Description: (§1) The activity of the Product was determined using a variety of insect and acarine pests. The Product was used in the form of liquid preparations containing 500, 250 or 100 parts per million (ppm) by weight of the Product. The preparations were made by dissolving the Product in acetone and diluting the solutions with water containing 0.01% by weight of a wetting agent sold under the trade name "LISSAPOL" NX until the liquid preparations contained the required concentratio of the Product. "Lissapol" is a Registered Trade Mark.
# (§2) The test procedure adopted with regard to each pest was basically the same and comprised supporting a number of the pests on a medium which was usually a host plant or a foodstuff on which the pests feed, and treating either or both the pests and the medium with the preparations. The mortality of the pests was then assessed at periods usually varying from one to three days after the treatment.
# (§3) The results of the tests are given in Table IV for each of the Products, at the rate in parts per million given in the second column as a grading of mortality designated as A, B or C wherein A indicates 80-100% mortality or knockdown (70-100% in the case of Spodoptera exigua), B indicates 50-79% mortality or knockdown (50-69% in the case of Spodoptera exigua) and C indicates less than 50% mortality or knockdown.
# (§4) In Table IV the pest organism used is designated by a letter code and the pest species, the support medium or food, and the type and duration of test is given in Table III.
# [2] = system: Musca domestica; experiment: Insecticidal test, Musca domestica (houseflies - adults), contact; conditions: 24 h, cotton wool/sugar, 1 day, read-out: grading of mortality, MD
# Description: as §1, §2, §3, §4
# [3] = system: Heliothis virescens; experiment: whole plant or invertebrate; conditions: in Gossypium hirsutum, 72 h, read-out: grading of mortality, HV
# Description: as §1, §2, §3, §4
# [4] = system: Diabrotica balteata; experiment: Insecticidal test, Diabrotica balteata (rootworm larvae), residual; conditions: 72 h, filter paper/maize seed, 3 days, read-out: grading of mortality, DB
# Description: as §1, §2, §3, §4
# [5] = system: Blattella germanica; experiment: Insecticidal test, Blattella germanica (cockroach nymphs), residual; conditions: 72 h, plastic pot, 3 days, read-out: grading of mortality, BG
# Description: as §1, §2, §3, §4
# [6] = system: Myzus persicae; experiment: Insecticidal test, Myzus persicae (aphids), contact; conditions: 72 h, Chinese Cabbage leaf, 3 days, read-out: grading of mortality, MP
# Description: as §1, §2, §3, §4
# [7] = system: Musca domestica; experiment: Knockdown test, Musca domestica (houseflies - adults); conditions: cotton wool/sugar, 4 hours, read-out: grading of knockdown, MD/KD
# Description: as §1, §2
# In the case of the species Musca domestica (housefly), additional tests to determine the knockdown effect of the compounds were performed.
# as §3, §4
# [8] = system: Tetranychus urticae; experiment: Insecticidal/acaricidal test, Tetranychus urticae (spider mites - adult), contact; conditions: 72 h, 500 ppm, French bean leaf, 3 days, read-out: grading of mortality, TU
# Description: as §1, §2, §3, §4
SMILES,mortality at 250 ppm [1] [%],mortality at 250 ppm [2] [%],mortality at 250 ppm [3] [%],mortality at 250 ppm [4] [%],mortality at 250 ppm [5] [%],mortality at 250 ppm [6] [%],pest or weed control at 250 ppm [7] [%],mortality at 500 ppm [1] [%],mortality at 500 ppm [2] [%],mortality at 500 ppm [4] [%],mortality at 500 ppm [5] [%],mortality at 500 ppm [6] [%],pest or weed control at 500 ppm [7] [%],also measured
"CCOc1ccc(C(F)(COCc2cccc(Oc3ccccc3)c2)C(F)(F)F)cc1 (centres unmarked) [Compound 75, 1,1,1,2-tetrafluoro-2-(4-ethoxyphenyl)-3-(3-phenoxybenzyloxy)propane]",,,,,,,,,,,,,,mortality at 100 ppm [1]: 80 to 100%; mortality at 100 ppm [2]: 50 to 79%; mortality at 100 ppm [3]: < 50%; mortality at 100 ppm [4]: 80 to 100%; mortality at 100 ppm [5]: < 50%; mortality at 100 ppm [6]: 50 to 79%; pest or weed control at 100 ppm [7]: 80 to 100%
"CCOc1ccc(C(O)(COCc2ccc(F)c(Oc3ccccc3)c2)C(F)(F)F)cc1 (centres unmarked) [Compound 113, 1,1,1-Trifluoro-2-(4-ethoxyphenyl)-3-(4-fluoro-3-phenoxybenzyloxy)propan-2-ol]",50 to 79,50 to 79,< 50,80 to 100,< 50,< 50,80 to 100,,,,,,,
"CCOc1ccc(C(COCc2ccc(F)c(Oc3ccccc3)c2)(OC(C)=O)C(F)(F)F)cc1 (centres unmarked) [Compound 149, 1,1,1-trifluoro-2-acetoxy-2-(4-ethoxyphenyl)-3-(3-phenoxy-4-fluorobenzyloxy)propane]",50 to 79,< 50,50 to 79,< 50,< 50,< 50,< 50,,,,,,,
"CCOc1ccc(C(Cl)(COCc2ccc(F)c(Oc3ccc(Br)cc3)c2)C(F)(F)F)cc1 (centres unmarked) [Compound 43, 1,1,1-Trifluoro-2-chloro-2-(4-ethoxyphenyl)-3-(3-(4-bromophenoxy)-4-fluorobenzyloxy)propane]",,,,,,,,80 to 100,80 to 100,< 50,50 to 79,80 to 100,80 to 100,mortality at 500 ppm [8]: 50 to 79%
"OC(COCc1cccc(Oc2ccccc2)c1)(c1ccc(OC(F)(F)F)cc1)C(F)(F)F (centres unmarked) [Compound 139, 1,1,1-trifluoro-2-(4-trifluoromethoxyphenyl)-3-(3-phenoxybenzyloxy)-propan-2-ol]",,,,,,,,< 50,80 to 100,80 to 100,< 50,< 50,80 to 100,mortality at 500 ppm [3]: 80 to 100%
"CCOc1ccc(C(COCc2cccc(Oc3ccccc3)n2)C(F)(F)F)cc1 (centres unmarked) [Compound 4, 1,1,1-Trifluoro-2-(4-ethoxyphenyl)-3-(6-phenoxy-2-pyridylmethyloxy)propane]",,,,,,,,,,,,,,mortality at 100 ppm [1]: 80 to 100%; mortality at 100 ppm [2]: 80 to 100%; mortality at 100 ppm [3]: 80 to 100%; mortality at 100 ppm [4]: 80 to 100%; mortality at 100 ppm [5]: 80 to 100%; mortality at 100 ppm [6]: 80 to 100%; pest or weed control at 100 ppm [7]: 80 to 100%
"OC(COCc1ccc(F)c(Oc2ccccc2)c1)(c1ccc(Cl)cc1)C(F)(F)F (centres unmarked) [Compound 126, 1,1,1-Trifluoro-2-(4-chlorophenyl)-3-(3-phenoxy-4-fluorobenzyloxy)propan-2-ol]",,,,,,,,< 50,< 50,< 50,< 50,< 50,80 to 100,mortality at 500 ppm [8]: 80 to 100%
"CCOc1ccc(C(F)(COCc2c(F)c(F)c(C)c(F)c2F)C(F)(F)F)cc1 (centres unmarked) [Compound 78, 1,1,1,2-Tetrafluoro-2-(4-ethoxyphenyl)-3-(4-methyl-2,3,5,6-tetrafluorobenzyloxy)propane]",80 to 100,< 50,80 to 100,80 to 100,80 to 100,< 50,< 50,,,,,,,
"CCOc1ccc(C(Cl)(COCc2cccc(Oc3ccccc3)n2)C(F)(F)F)cc1 (centres unmarked) [Compound 41, 1,1,1-Trifluoro-2-chloro-2-(4-ethoxyphenyl)-3-(6-phenoxy-2-pyridylmethyloxy)propane]",,,,,,,,80 to 100,80 to 100,80 to 100,< 50,80 to 100,80 to 100,mortality at 500 ppm [3]: 80 to 100%
"CCOc1ccc(C(F)(COCc2ccc(F)c(Oc3ccccc3)c2)C(F)(F)F)cc1 (centres unmarked) [Compound 77, 1,1,1,2-Tetrafluoro-2-(4-ethoxyphenyl)-3-(3-phenoxy-4-fluorobenzyloxy)propane]",80 to 100,80 to 100,80 to 100,80 to 100,80 to 100,80 to 100,80 to 100,,,,,,,
"CCOc1ccc(C(Cl)(COCc2ccc(F)c(Oc3ccccc3)c2)C(F)(F)F)cc1 (centres unmarked) [Compound 40, 1,1,1-Trifluoro-2-chloro-2-(4-ethoxyphenyl)-3-(3-phenoxy-4-fluorobenzyloxy)propane]",80 to 100,80 to 100,80 to 100,80 to 100,80 to 100,80 to 100,80 to 100,,,,,,,
"CCOc1ccc(C(O)(COCc2c(F)c(F)c(C)c(F)c2F)C(F)(F)F)cc1 (centres unmarked) [Compound 114, 1,1,1-Trifluoro-2-(4-ethoxyphenyl)-3-(4-methyl-2,3,5,6-tetrafluorobenzyloxy)propan-2-ol]",,,,,,,,,,,,,,mortality at 100 ppm [1]: 50 to 79%; mortality at 100 ppm [2]: < 50%; mortality at 100 ppm [3]: < 50%; mortality at 100 ppm [4]: < 50%; mortality at 100 ppm [5]: < 50%; mortality at 100 ppm [6]: < 50%; pest or weed control at 100 ppm [7]: < 50%
"CCOc1ccc(C(Cl)(COCc2c(F)c(F)c(C)c(F)c2F)C(F)(F)F)cc1 (centres unmarked) [Compound 39, 1,1,1-Trifluoro-2-chloro-2-(4-ethoxyphenyl)-3-(4-methyl-2,3,5,6-tetrafluorobenzyloxy)propane]",80 to 100,< 50,< 50,< 50,< 50,< 50,< 50,,,,,,,
"CCOc1ccc(C(COCc2ccc(F)c(Oc3ccccc3)c2)(OC)C(F)(F)F)cc1 (centres unmarked) [Compound 150, 1,1,1-trifluoro-2-methoxy-2-(4-ethoxyphenyl)-3-(3-phenoxy-4-fluorobenzyloxy)propane]",< 50,< 50,80 to 100,80 to 100,< 50,50 to 79,< 50,,,,,,,
"Fc1ccc(COCC(F)(c2ccc(Cl)cc2)C(F)(F)F)cc1Oc1ccccc1 (centres unmarked) [Compound 81, 1,1,1,2-tetrafluoro-2-(4-chlorophenyl)-3-(3-phenoxy-4-fluorobenzyloxy)propane]",,,,,,,,80 to 100,80 to 100,80 to 100,80 to 100,80 to 100,80 to 100,mortality at 500 ppm [8]: < 50%
"CCOc1ccc(C(O)(COCc2cccc(Oc3ccccc3)n2)C(F)(F)F)cc1 (centres unmarked) [Compound 141, 1,1,1-trifluoro-2-(4-ethoxyphenyl)-3-(6-phenoxy-2-pyridylmethyloxy)propan-2-ol]",,,,,,,,50 to 79,80 to 100,50 to 79,< 50,< 50,80 to 100,mortality at 500 ppm [3]: 80 to 100%
"CCOc1ccc(C(F)(COCc2cccc(Oc3ccccc3)n2)C(F)(F)F)cc1 (centres unmarked) [Compound 76, 1,1,1,2-Tetrafluoro-2-(4-ethoxyphenyl)-3-(6-phenoxy-2-pyridylmethyloxy)propane]",,,,,,,,80 to 100,80 to 100,80 to 100,80 to 100,80 to 100,80 to 100,mortality at 500 ppm [3]: 80 to 100%

# — US5225607A, “Insecticidal ethers” (Imperial Chemical Industries PLC, priority 1985, dated 1993)
